Reference: PubChem BioAssay (NCI)
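Dose response: 5 concentrations. Exposure: 48 h. Format: 96-well plates. Endpoint: linear interpolation; highest concentration if not reached. TGI marks complete inhibition of growth.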

Assays:
Assay in all cases: inhibition of tumour cell growth, NCI panel, 48 h
[1] = test system: HT29 colon
[2] = test system: HCT-15 colon
[3] = test system: HCT-116 colon
[4] = test system: SR leukemia
[5] = test system: NCI-H460 lung
[6] = test system: IGROV1 ovarian
[7] = test system: SNB-75 CNS
[8] = test system: SF-268 CNS
[9] = test system: NCI-H23 lung
[10] = test system: U251 CNS
[11] = test system: SK-OV-3 ovarian
[12] = test system: NCI-H522 lung
[13] = test system: SF-539 CNS
[14] = test system: NCI-H226 lung
[15] = test system: OVCAR-8 ovarian
[16] = test system: SN12C renal
[17] = test system: LXFL 529 NSCLC
[18] = test system: KM20L2 colon
[19] = test system: HCC-2998 colon
[20] = test system: M19-MEL melanoma
[21] = test system: SK-MEL-28 melanoma
[22] = test system: DMS 114 small cell lung
[23] = test system: XF 498 CNS
[24] = test system: SK-MEL-2 melanoma
[25] = test system: DLD-1 colon
[26] = test system: SNB-19 CNS
[27] = test system: EKVX NSCLC
[28] = test system: CCRF-CEM leukemia
[29] = test system: ACHN renal
[30] = test system: TK-10 renal
[31] = test system: HOP-62 NSCLC
[32] = test system: M14 melanoma
[33] = test system: UACC-257 melanoma
[34] = test system: SK-MEL-5 melanoma
[35] = test system: OVCAR-5 ovarian
[36] = test system: RPMI-8226 leukemia
[37] = test system: A549 NSCLC
[38] = test system: RXF 393 renal
[39] = test system: SW-620 colon
[40] = test system: HOP-18 NSCLC
[41] = test system: A498 renal
[42] = test system: 786-0 renal
[43] = test system: UO-31 renal
[44] = test system: MALME-3M melanoma
[45] = test system: MOLT-4 leukemia
[46] = test system: KM12 colon
[47] = test system: SF-295 CNS
[48] = test system: SNB-78 CNS
[49] = test system: K-562 leukemia
[50] = test system: HOP-92 NSCLC
[51] = test system: HL-60(TB) leukemia
[52] = test system: DMS 273 small cell lung
[53] = test system: UACC-62 melanoma
[54] = test system: OVCAR-3 ovarian
[55] = test system: COLO 205 colon
[56] = test system: LOX IMVI melanoma
[57] = test system: OVCAR-4 ovarian
[58] = test system: CAKI-1 renal

In the case of C=CN1C(=O)[C@H](Oc2ccccc2)[C@@H]1c1ccccc1, the TGI [1] was 69.4 µM, the TGI [2] was > 100 µM and the TGI [3] was > 100 µM. The TGI [4] was > 100 µM, the TGI [5] was > 100 µM and the TGI [6] was > 100 µM. For the same molecule, the TGI [7] was 61.8 µM, the TGI [8] was > 100 µM and the TGI [9] was 60 µM. The TGI [10] was > 100 µM, the TGI [11] was 78.8 µM and the TGI [12] was 91.3 µM. For the same molecule, the TGI [13] was 31.1 µM, the TGI [14] was > 100 µM and the TGI [15] was 83.6 µM. The TGI [16] was > 100 µM, the TGI [17] was > 100 µM and the TGI [18] was > 100 µM. For the same molecule, the TGI [19] was > 100 µM, the TGI [20] was > 100 µM and the TGI [21] was > 100 µM. The TGI [22] was > 100 µM, the TGI [23] was 84 µM and the TGI [24] was > 100 µM. For the same molecule, the TGI [25] was > 100 µM, the TGI [26] was > 100 µM and the TGI [27] was > 100 µM. For the same molecule, the TGI [28] was > 100 µM, the TGI [29] was > 100 µM and the TGI [30] was > 100 µM. For the same molecule, the TGI [31] was 92.2 µM, the TGI [32] was > 100 µM and the TGI [33] was > 100 µM. The TGI [34] was > 100 µM, the TGI [35] was > 100 µM and the TGI [36] was 57 µM. For the same molecule, the TGI [37] was 85 µM, the TGI [38] was 52.5 µM and the TGI [39] was > 100 µM. The TGI [40] was > 100 µM, the TGI [41] was > 100 µM and the TGI [42] was 33.1 µM. The TGI [43] was > 100 µM, the TGI [44] was > 100 µM and the TGI [45] was 91.3 µM. The TGI [46] was > 100 µM, the TGI [47] was > 100 µM and the TGI [48] was > 100 µM. The TGI [49] was > 100 µM.

C=CCC1(CN(C)C)CC/C(=C\c2ccc(Cl)cc2)C1=O (configuration not stated) was tested, and the TGI [1] was 60.1 µM, the TGI [2] was 58.4 µM and the TGI [3] was > 94.5 µM. For the same molecule, the TGI [50] was > 100 µM, the TGI [4] was 20.3 µM and the TGI [51] was 74.4 µM. The TGI [5] was 45.6 µM, the TGI [6] was > 31.6 µM and the TGI [7] was > 90.3 µM. The TGI [8] was > 100 µM, the TGI [9] was > 100 µM and the TGI [10] was > 100 µM. For the same molecule, the TGI [11] was > 100 µM, the TGI [12] was 41.9 µM and the TGI [13] was > 83.8 µM. The TGI [14] was > 100 µM, the TGI [15] was > 100 µM and the TGI [16] was > 100 µM. The TGI [17] was > 74.8 µM, the TGI [52] was > 59.1 µM and the TGI [53] was > 100 µM. For the same molecule, the TGI [18] was > 67.4 µM, the TGI [19] was > 70.5 µM and the TGI [54] was > 100 µM. The TGI [20] was > 92.7 µM, the TGI [21] was > 100 µM and the TGI [22] was > 72.2 µM. The TGI [23] was > 100 µM, the TGI [24] was > 100 µM and the TGI [25] was > 94.4 µM. The TGI [55] was > 59.8 µM, the TGI [26] was > 100 µM and the TGI [27] was > 100 µM. For the same molecule, the TGI [28] was 24 µM, the TGI [29] was > 100 µM and the TGI [30] was > 100 µM. For the same molecule, the TGI [31] was > 100 µM, the TGI [32] was > 64.9 µM and the TGI [33] was 54.1 µM. The TGI [34] was > 79.1 µM, the TGI [35] was > 100 µM and the TGI [36] was 53.6 µM. For the same molecule, the TGI [37] was > 100 µM, the TGI [38] was > 72.9 µM and the TGI [39] was > 76.2 µM. For the same molecule, the TGI [40] was > 100 µM, the TGI [41] was > 100 µM and the TGI [42] was > 100 µM. For the same molecule, the TGI [43] was > 100 µM, the TGI [56] was 52 µM and the TGI [44] was > 100 µM. The TGI [45] was 53 µM, the TGI [46] was > 78.5 µM and the TGI [47] was > 85.3 µM. For the same molecule, the TGI [57] was > 94.5 µM, the TGI [48] was > 72 µM and the TGI [49] was 76.3 µM. The TGI [58] was > 100 µM.
